Laboratory results as given in patent publication US10682413B2, “Pharmaceutical forms of diazabicyclooctane derivatives and process for producing the same” (Fedora Pharmaceuticals Inc., priority 2017, dated 2020).

Assay: Decomposition of Compound (I) in aqueous solutions
Assay type: physicochemical
Source text: The present application is directed to a pharmaceutical composition of Compound (I) suitable for parenteral administration. […] Applicant discovered a lyophilisate formulation comprising a sugar and Compound (I) to afford an amorphous lyophilisate suitable for intravenous administration.

Structure (SMILES): NCCONC(=O)[C@@H]1CC[C@@H]2CN1C(=O)N2OS(=O)(=O)O [Compound (I), (2S, 5R)—N-(2-aminoethoxy)-7-oxo-6-(sulfooxy)-1,6-diazabicyclo[3.2.1]octane-2-carboxamide]
- stability in aqueous solutions: undergoes decomposition and dimerization in aqueous solutions
